How the values were obtained:
PIK3C2G = target: T1, PIK3C2G (Homo sapiens, UniProt O75747); test: KINOMEscan; format: binding; details: read-out: %Ctrl @ 10000nM
T1 construct: purchased DiscoverX KINOMEscan

ACVR1 = target: T2, ACVR1 (Homo sapiens, UniProt Q04771); test: KINOMEscan; format: binding; details: read-out: %Ctrl @ 10000nM
T2 construct: purchased DiscoverX KINOMEscan

[1] = target: T3, ABL1(Y253F)-phosphorylated (Homo sapiens, UniProt P00519, Y253F); test: KINOMEscan; format: binding; details: read-out: %Ctrl @ 10000nM
T3 construct: purchased DiscoverX KINOMEscan

SRPK3 = target: T4, SRPK3 (Homo sapiens, UniProt Q9UPE1); test: KINOMEscan; format: binding; details: read-out: %Ctrl @ 10000nM
T4 construct: purchased DiscoverX KINOMEscan

[2] = target: T5, TYK2(JH2domain-pseudokinase) (Homo sapiens, UniProt P29597); test: KINOMEscan; format: binding; details: read-out: %Ctrl @ 10000nM
T5 construct: TYK2(JH2domain-pseudokinase); DNA label for qPCR (T7 phage fusion or DNA tag); purchased DiscoverX scanMAX; host or cells: E. coli BL21-derived (T7 phage) or HEK-293

GRK4 = target: T6, GRK4 (Homo sapiens, UniProt P32298); test: KINOMEscan; format: binding; details: read-out: %Ctrl @ 10000nM
T6 construct: purchased DiscoverX KINOMEscan

Plasma stability = format: in vitro ADME; details: mouse, read-out: Plasma Stability T1/2
RET(V804L) = target: T7, RET(V804L) (Homo sapiens, UniProt P07949, V804L); test: KINOMEscan; format: binding; details: read-out: %Ctrl @ 10000nM
T7 construct: purchased DiscoverX KINOMEscan

PKN2 = target: T8, PKN2 (Homo sapiens, UniProt Q16513); test: KINOMEscan; format: binding; details: read-out: %Ctrl @ 10000nM
T8 construct: purchased DiscoverX KINOMEscan

FLT3(R834Q) = target: T9, FLT3(R834Q) (Homo sapiens, UniProt P36888, R834Q); test: KINOMEscan; format: binding; details: read-out: %Ctrl @ 10000nM
T9 construct: purchased DiscoverX KINOMEscan

AKT1 = target: T10, AKT1 (Homo sapiens, UniProt P31749); test: KINOMEscan; format: binding; details: read-out: %Ctrl @ 10000nM
T10 construct: purchased DiscoverX KINOMEscan

STK33 = target: T11, STK33 (Homo sapiens, UniProt Q9BYT3); test: KINOMEscan; format: binding; details: read-out: %Ctrl @ 10000nM
T11 construct: purchased DiscoverX KINOMEscan

DLK = target: T12, DLK (Homo sapiens, UniProt Q12852); test: KINOMEscan; format: binding; details: read-out: %Ctrl @ 10000nM
T12 construct: purchased DiscoverX KINOMEscan

MEK6 = target: T13, MEK6 (Homo sapiens, UniProt P52564); test: KINOMEscan; format: binding; details: read-out: %Ctrl @ 10000nM
T13 construct: purchased DiscoverX KINOMEscan

YES = target: T14, YES (Homo sapiens, UniProt P07947); test: KINOMEscan; format: binding; details: read-out: %Ctrl @ 10000nM
T14 construct: purchased DiscoverX scanMAX; host or cells: E. coli BL21-derived host (T7 phage) or HEK-293

ACVRL1 = target: T15, ACVRL1 (Homo sapiens, UniProt P37023); test: KINOMEscan; format: binding; details: read-out: %Ctrl @ 10000nM
T15 construct: purchased DiscoverX KINOMEscan

PIK3CA(M1043I) = target: T16, PIK3CA(M1043I) (Homo sapiens, UniProt P42336, M1043I); test: KINOMEscan; format: binding; details: read-out: %Ctrl @ 10000nM
T16 construct: purchased DiscoverX KINOMEscan

EPHB2 = target: T17, EPHB2 (Homo sapiens, UniProt P29323); test: KINOMEscan; format: binding; details: read-out: %Ctrl @ 10000nM
T17 construct: purchased DiscoverX KINOMEscan

LIMK2 = target: T18, LIMK2 (Homo sapiens, UniProt P53671); test: KINOMEscan; format: binding; details: read-out: %Ctrl @ 10000nM
T18 construct: purchased DiscoverX KINOMEscan

KIT(V559D,T670I) = target: T19, KIT(V559D,T670I) (Homo sapiens, UniProt P10721, T670I/V559D); test: KINOMEscan; format: binding; details: read-out: %Ctrl @ 10000nM
T19 construct: purchased DiscoverX KINOMEscan

ROCK1 = target: T20, ROCK1 (Homo sapiens, UniProt Q13464); test: KINOMEscan; format: binding; details: read-out: %Ctrl @ 10000nM
T20 construct: purchased DiscoverX KINOMEscan

DMPK2 = target: T21, DMPK2 (Homo sapiens, UniProt Q6DT37); test: KINOMEscan; format: binding; details: read-out: %Ctrl @ 10000nM
T21 construct: purchased DiscoverX KINOMEscan

T1 sequence (O75747 whole entry): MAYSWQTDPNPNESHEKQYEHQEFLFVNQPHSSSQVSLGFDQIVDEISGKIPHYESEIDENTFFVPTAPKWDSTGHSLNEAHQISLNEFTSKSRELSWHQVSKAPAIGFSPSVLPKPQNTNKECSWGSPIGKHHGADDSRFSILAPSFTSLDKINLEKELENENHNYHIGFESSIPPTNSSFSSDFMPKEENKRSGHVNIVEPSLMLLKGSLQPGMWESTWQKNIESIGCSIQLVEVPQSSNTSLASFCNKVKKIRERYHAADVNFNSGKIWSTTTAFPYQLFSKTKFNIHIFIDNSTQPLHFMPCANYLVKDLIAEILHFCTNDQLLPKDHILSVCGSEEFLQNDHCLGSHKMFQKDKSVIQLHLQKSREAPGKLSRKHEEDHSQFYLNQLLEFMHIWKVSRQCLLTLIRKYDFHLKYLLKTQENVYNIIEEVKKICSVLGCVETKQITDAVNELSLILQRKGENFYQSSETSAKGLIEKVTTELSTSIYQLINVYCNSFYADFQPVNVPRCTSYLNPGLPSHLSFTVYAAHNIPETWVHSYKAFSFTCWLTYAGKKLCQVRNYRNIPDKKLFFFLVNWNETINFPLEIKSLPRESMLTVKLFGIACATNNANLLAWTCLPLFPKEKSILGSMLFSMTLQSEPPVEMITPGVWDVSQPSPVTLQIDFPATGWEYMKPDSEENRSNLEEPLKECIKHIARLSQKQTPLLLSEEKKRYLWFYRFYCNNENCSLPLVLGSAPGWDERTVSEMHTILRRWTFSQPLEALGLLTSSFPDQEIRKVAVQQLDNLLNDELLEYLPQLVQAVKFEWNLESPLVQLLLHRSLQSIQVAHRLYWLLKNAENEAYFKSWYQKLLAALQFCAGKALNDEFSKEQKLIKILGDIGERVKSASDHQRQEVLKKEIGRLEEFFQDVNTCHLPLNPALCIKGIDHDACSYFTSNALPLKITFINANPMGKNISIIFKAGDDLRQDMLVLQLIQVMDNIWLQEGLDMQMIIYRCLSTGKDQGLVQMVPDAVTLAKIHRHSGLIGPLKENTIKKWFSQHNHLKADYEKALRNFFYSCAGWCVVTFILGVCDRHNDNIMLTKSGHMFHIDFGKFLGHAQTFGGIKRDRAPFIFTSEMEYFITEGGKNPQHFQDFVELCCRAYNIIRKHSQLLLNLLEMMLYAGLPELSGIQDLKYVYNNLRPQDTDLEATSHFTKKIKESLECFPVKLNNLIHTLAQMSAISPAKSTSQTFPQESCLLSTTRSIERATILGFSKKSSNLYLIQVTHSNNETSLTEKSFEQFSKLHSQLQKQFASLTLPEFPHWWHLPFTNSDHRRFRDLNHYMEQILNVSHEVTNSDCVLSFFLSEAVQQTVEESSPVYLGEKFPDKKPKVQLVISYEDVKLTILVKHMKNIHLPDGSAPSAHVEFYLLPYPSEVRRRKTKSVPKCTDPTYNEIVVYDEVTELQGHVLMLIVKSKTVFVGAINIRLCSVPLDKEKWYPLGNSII
T17 sequence (P29323 19-1055): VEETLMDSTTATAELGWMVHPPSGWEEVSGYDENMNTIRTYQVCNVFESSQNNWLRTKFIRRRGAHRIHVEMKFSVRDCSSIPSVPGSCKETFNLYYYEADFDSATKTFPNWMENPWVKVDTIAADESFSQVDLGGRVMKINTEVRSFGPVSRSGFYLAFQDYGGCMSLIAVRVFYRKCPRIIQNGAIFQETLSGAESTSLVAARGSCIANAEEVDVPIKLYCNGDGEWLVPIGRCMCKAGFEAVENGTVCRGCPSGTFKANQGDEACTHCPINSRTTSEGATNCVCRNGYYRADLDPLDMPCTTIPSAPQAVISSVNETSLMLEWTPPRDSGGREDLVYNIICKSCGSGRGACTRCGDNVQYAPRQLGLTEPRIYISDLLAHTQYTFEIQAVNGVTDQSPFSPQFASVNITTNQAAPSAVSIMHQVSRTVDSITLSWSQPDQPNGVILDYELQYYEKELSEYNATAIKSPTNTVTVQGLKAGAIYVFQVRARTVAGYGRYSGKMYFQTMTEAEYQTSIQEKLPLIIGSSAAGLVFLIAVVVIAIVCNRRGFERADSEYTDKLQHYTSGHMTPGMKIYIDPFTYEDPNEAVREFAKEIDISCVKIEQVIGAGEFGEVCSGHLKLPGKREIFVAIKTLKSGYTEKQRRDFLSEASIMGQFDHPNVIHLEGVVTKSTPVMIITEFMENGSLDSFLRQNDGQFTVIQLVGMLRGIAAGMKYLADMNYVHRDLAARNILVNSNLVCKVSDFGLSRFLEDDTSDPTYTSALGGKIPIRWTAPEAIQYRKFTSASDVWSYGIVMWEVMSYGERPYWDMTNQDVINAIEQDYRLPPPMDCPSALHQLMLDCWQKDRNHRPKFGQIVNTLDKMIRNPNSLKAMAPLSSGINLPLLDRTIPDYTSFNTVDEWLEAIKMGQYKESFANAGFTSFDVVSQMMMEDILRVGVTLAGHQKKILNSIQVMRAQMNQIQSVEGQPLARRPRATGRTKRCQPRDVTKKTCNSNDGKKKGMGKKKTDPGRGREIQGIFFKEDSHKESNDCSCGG
T12 sequence (Q12852 whole entry): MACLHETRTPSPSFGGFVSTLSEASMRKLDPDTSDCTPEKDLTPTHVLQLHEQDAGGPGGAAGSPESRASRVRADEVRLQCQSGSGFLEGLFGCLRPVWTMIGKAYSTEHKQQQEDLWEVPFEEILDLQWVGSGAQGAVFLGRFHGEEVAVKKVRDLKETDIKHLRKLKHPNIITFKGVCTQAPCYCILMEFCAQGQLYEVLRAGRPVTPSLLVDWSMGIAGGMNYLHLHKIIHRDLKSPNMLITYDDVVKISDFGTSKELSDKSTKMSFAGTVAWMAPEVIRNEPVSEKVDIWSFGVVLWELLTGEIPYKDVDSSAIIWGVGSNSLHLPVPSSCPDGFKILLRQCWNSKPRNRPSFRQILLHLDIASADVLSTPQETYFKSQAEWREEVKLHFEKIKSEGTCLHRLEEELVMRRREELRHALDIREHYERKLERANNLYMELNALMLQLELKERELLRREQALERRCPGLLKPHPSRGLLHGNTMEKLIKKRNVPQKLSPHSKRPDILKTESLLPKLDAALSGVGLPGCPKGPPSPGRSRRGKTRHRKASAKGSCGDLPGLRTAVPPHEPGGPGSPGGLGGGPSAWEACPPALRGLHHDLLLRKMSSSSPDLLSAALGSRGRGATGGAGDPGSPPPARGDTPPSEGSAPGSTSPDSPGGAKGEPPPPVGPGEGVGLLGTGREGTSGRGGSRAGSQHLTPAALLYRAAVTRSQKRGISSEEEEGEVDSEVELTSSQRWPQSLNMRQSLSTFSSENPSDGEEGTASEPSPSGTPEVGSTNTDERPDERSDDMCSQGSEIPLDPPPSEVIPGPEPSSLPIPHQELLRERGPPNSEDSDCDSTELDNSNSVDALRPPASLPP
T16 sequence (P42336 whole entry M1043I): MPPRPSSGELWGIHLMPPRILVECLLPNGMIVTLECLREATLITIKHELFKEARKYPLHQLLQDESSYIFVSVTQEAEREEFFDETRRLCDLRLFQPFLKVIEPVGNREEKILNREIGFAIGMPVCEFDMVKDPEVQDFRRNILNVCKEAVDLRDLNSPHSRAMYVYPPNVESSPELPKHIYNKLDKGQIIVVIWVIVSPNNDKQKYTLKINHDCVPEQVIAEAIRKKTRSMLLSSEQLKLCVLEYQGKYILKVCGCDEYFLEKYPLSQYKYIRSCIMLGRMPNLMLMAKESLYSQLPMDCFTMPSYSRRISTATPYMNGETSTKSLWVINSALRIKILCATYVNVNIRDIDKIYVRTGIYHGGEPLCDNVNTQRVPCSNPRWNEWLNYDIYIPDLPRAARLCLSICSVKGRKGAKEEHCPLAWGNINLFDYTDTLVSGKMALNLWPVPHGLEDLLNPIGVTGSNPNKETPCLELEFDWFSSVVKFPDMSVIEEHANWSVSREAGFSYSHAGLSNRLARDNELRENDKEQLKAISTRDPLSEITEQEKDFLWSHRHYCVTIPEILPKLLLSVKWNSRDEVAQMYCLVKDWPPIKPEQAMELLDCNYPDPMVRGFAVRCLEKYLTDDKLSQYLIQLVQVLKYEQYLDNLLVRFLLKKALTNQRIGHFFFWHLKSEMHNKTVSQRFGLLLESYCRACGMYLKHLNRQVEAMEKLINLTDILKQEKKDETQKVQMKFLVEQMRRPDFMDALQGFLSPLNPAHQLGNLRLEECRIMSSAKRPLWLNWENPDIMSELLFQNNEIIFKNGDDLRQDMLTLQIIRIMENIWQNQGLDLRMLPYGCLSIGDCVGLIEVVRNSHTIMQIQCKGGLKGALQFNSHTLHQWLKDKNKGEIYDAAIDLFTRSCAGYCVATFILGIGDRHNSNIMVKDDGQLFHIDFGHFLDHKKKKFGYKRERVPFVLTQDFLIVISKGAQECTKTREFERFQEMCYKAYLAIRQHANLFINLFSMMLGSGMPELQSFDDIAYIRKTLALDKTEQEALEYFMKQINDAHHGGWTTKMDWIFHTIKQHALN
T11 sequence (Q9BYT3 whole entry): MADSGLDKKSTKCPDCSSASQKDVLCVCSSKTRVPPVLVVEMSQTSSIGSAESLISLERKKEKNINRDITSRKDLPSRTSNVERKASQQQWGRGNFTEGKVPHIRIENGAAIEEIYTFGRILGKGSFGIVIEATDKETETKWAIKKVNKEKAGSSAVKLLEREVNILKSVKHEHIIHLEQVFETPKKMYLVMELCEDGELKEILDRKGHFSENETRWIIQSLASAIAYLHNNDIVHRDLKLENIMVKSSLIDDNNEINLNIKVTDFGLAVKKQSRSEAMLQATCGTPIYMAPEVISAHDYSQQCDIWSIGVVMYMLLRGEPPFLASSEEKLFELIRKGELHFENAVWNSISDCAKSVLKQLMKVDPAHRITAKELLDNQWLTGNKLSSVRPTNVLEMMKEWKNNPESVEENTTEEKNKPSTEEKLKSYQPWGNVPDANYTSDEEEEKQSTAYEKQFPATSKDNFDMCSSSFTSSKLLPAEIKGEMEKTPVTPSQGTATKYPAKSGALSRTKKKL

`CC(C)c1ccc(CC(=O)N2CCN(c3ccc(C#N)nn3)CC2)cc1` [PZ-2891, 6-(4-(2-(4-isopropylphenyl)acetyl)piperazin-1-yl)pyridazine-3-carbonitrile] showed a remaining binding at 10 µM (PIK3C2G) of 61%, a remaining binding at 10 µM (ACVR1) of 88% and a remaining binding at 10 µM [1] of 82%. It also gave a remaining binding at 10 µM (SRPK3) of 67%, a remaining binding at 10 µM [2] of 100% and a remaining binding at 10 µM (GRK4) of 52%. The half-life (Plasma stability) was greater than 50 h, the remaining binding at 10 µM (RET(V804L)) was 96% and the remaining binding at 10 µM (PKN2) was 94%. For the same molecule, the remaining binding at 10 µM (FLT3(R834Q)) was 100%, the remaining binding at 10 µM (AKT1) was 98% and the remaining binding at 10 µM (STK33) was 90%. It also gave a remaining binding at 10 µM (DLK) of 100%, a remaining binding at 10 µM (MEK6) of 94% and a remaining binding at 10 µM (YES) of 90%. The remaining binding at 10 µM (ACVRL1) was 100%, the remaining binding at 10 µM (PIK3CA(M1043I)) was 74% and the remaining binding at 10 µM (EPHB2) was 82%. The remaining binding at 10 µM (LIMK2) was 95%, the remaining binding at 10 µM (KIT(V559D,T670I)) was 94% and the remaining binding at 10 µM (ROCK1) was 100%. For the same molecule, the remaining binding at 10 µM (DMPK2) was 93%.

Reference: publication PMC6199309, “A therapeutic approach to pantothenate kinase associated neurodegeneration” (Nature Communications, 2018)
